Counter-ions that a name gives are not always drawn. Like-named read-outs stand apart in the source and are kept apart here. {AF594} = Alexa Fluor 594 dye
Experiments:
[1] = system: CLso; format: in vivo, Candidatus Liberibacter solanacearum; details: for tuber disease symptoms (proportion of symptomatic tubers) compared to CLso infected Control tubers: 8 week trial (FIG. 11C); for foliar disease symptoms (foliar symptom ranking) / products with the greatest foliar symptom reduction: 8 week trial; for foliar disease symptoms (foliar symptom ranking): soil application (FIG. 11B); for products with the greatest foliar symptom reduction: comparison among all products (FIG. 11B)
[2] = system: wDi gyrA gene; format: cell-based, Wolbachia-Diaphorina
[3] = system: wDi cells
[4] = system: CLas LigA gene; format: in vivo, Candidatus Liberibacter asiaticus
[5] = system: CLas; format: in vivo, Candidatus Liberibacter asiaticus
[6] = system: CLas; format: in vivo, Candidatus Liberibacter asiaticus; details: for Liberibacter repression (percent change in CLas titer): CLas-infected Citrus trees, root infusion 5 mL of 5 μM; for effect on quantity of the bacterium (Liberibacter titer) in infected Citrus trees: FANA 5 μM, streptomycin sulfate 5 mg/mL, sampling 2, 7, 14, 30 days (FIG. 5)
[7] = system: CLas; format: in vivo, Candidatus Liberibacter asiaticus; remark: listed apart in the source
[8] = system: CLso; format: in vivo, Candidatus Liberibacter solanacearum; details: CLso infected potato, soil applied drench, one gallon pots (FIG. 8); infected untreated control ave. 39, uninfected healthy 66 cm
[9] = system: D. citri adults; parameters: species or system Diaphorina citri; details: in vivo

Compound: TATGGAAACAGCCTCAGATGC (FANA modification, further chemistry not given here) [CLsoDNAB-2, FANA ASO, CLso DnaB-Helicase C]
- tuber disease symptoms (proportion of symptomatic tubers) compared to CLso infected Control tubers [1]: significantly reduced
- foliar disease symptoms (foliar symptom ranking) [1]: significantly reduced

Compound: GCATCATTATTCACTAGGATAG (FANA modification, further chemistry not given here) [CLsoDNAB-1, FANA ASO, CLso DnaB-Helicase C]
- products with the greatest foliar symptom reduction [1]: most symptom reduction
- foliar disease symptoms (foliar symptom ranking) [1]: significantly reduced

Compound: TAGTTCCGATTTGTATGCATC (FANA modification, further chemistry not given here) [CLsoDnaB-6, FANA ASO, CLso DnaB-Helicase C]
- foliar disease symptoms (foliar symptom ranking) [1]: significantly reduced

Compound: TGGTATGGCAACCAATATTCC (FANA modification, further chemistry not given here) [gyrA-FANA]
- reduction in the amount of the target mRNA (wDi gyrA) compared to untreated cells ([2]; S2-wDi cells, 5 μM, seven days post-treatment, qRT-PCR (FIG. 2A)): 30%
- wDi gyrA transcript level compared to cells treated with the scramble control ([2]; S2-wDi cells, 5 μM, seven days, p=0.009): significantly lower
- number of viable wDi cells (wDi copy number, PMA-qPCR) ([3]; isolated wDi cells, 5 μM, four days, versus untreated or scramble control (FIG. 3)): greatly reduced

Compound: TTGTCCAGCCATATCAATAGC (FANA modification, further chemistry not given here) [CLsoDnaB-5, FANA ASO, CLso DnaB-Helicase C]
- foliar disease symptoms (foliar symptom ranking) [1]: significantly reduced

Compound: CGGCACAGCAATTAGAACGTC (FANA modification, further chemistry not given here) [LigA-FANA, FANA antisense oligo designed to target the CLas NAD-dependent DNA Ligase A gene]
- decrease of expression of the bacterial target gene (CLas LigA) compared to untreated psyllids ([4]; D. citri adults fed on excised Citrus leaves that took up 5 μM FANA solution, seven days, qRT-PCR (FIG. 2B)): 75%
- CLas LigA transcript level compared to insects treated with the scramble control ([4]; D. citri adults, 5 μM via leaves, seven days, p=0.009): significantly lower
- CLas density (copy number) in psyllids ([5]; D. citri adults, artificial diet 5 μM, seven days post-treatment, qPCR of 16S rRNA gene (FIG. 4), versus untreated psyllids): significantly lower
- Liberibacter repression (percent change in CLas titer) ([6]; seven days post treatment (FIG. 5)): 51.6%
- Liberibacter repression (percent change in CLas titer) ([6]; two days post treatment (FIG. 5)): 81%
- persistence of the suppression effect ([6]; root infusion, sampling period): 30 days
- effect on quantity of the bacterium (Liberibacter titer) in infected Citrus trees ([6]; root infusion): significantly reduced
- success of treated psyllids in transmitting the pathogen into citrus plants compared to untreated insects ([7]; psyllids treated seven days, 15 days inoculation access on Citrus macrophylla seedlings, p=0.018): less successful in transmitting the pathogen
- CLas copy number detected in the citrus plants exposed to the treated psyllids ([7]; seedlings sampled three months later (FIG. 7)): significantly lower

Compound: ATAACCTTGACGATCTGATTC (FANA modification, further chemistry not given here) [CLso-2 Gyr-Ext-2, FANA ASO, CLso Gyrase-A]
- plant growth, average height [8]: 51 centimeters
- products with the greatest foliar symptom reduction [1]: most symptom reduction
- foliar disease symptoms (foliar symptom ranking) [1]: significantly reduced

Compound: GGGAATATTCGTCGCCATACC (FANA modification, further chemistry not given here) [CLso-4Gyr, FANA ASO, CLso Gyrase A]
- foliar disease symptoms (foliar symptom ranking) [1]: significantly reduced

Compound: TGTATATGCGAGGACATCGTC (FANA modification, further chemistry not given here) [CLso-DnaB-7, FANA ASO, CLso DnaB-Helicase C]
- foliar disease symptoms (foliar symptom ranking) [1]: significantly reduced

Compound: CAAATCAGGTATAGCACGGCC (FANA modification, further chemistry not given here) [CLso-2Gyr, FANA ASO, CLso Gyrase A]
- foliar disease symptoms (foliar symptom ranking) [1]: significantly reduced

Compound: TATTACGATAGATCCTCGACC (FANA modification, further chemistry not given here) [CLso-2Gyr-Ext-3, FANA ASO, CLso Gyrase A]
- foliar disease symptoms (foliar symptom ranking) [1]: significantly reduced

Compound: [H]/N=C(/N)N[C@H]1[C@H](O)[C@@H](O)[C@H](O[C@@H]2O[C@@H](C)[C@](O)(C=O)[C@H]2O[C@@H]2O[C@@H](CO)[C@H](O)[C@@H](O)[C@@H]2NC)[C@@H](N/C(N)=N\[H])[C@@H]1O [streptomycin sulfate, reference compound]
- effect on quantity of the bacterium (Liberibacter titer) in infected Citrus trees ([6]; root infusion): did not significantly reduced

Compound: CGATTAAAAGCTTGTCCAGCC (FANA modification, further chemistry not given here) [CLsoDNAB-3, FANA ASO, CLso DnaB-Helicase C]
- foliar disease symptoms (foliar symptom ranking) [1]: significantly reduced

Compound: TTCTATCAGGGTAAATCGCTC (FANA modification, further chemistry not given here) [CLso-2 Gyr-Ext-4, FANA ASO, CLso Gyrase-A]
- plant growth, average height [8]: 51 centimeters
- tuber disease symptoms (proportion of symptomatic tubers) compared to CLso infected Control tubers [1]: significantly reduced
- foliar disease symptoms (foliar symptom ranking) [1]: significantly reduced

Compound: fluorophore-tagged FANA oligo control: FANA ASO with scramble sequence [SEQ ID NO: 1 and SEQ ID NO: 2] tagged with Alexa Fluor 594 at its 5′ end (chain 1 ACTGGGATACGACAAGGATAT; chain 2 TCTTGGAACAGCATAGGGACA; 5' {AF594}, sugars by position and backbone not given here; FANA ASO)
- localization of the oligo in psyllid alimentary canal [9]: detected mainly in the psyllid esophagus, filter chamber and anterior midgut

Compound: GAAGAACGGGCGAACTTTTTG (chemistry not given here) [L. solanacearum CLso2 -GyrA host Potato]
- plant growth, average height [8]: 51 centimeters
- foliar disease symptoms (foliar symptom ranking) [1]: significantly reduced

Compound: CATTTTGTATATGCGAGGACA (FANA modification, further chemistry not given here) [CLsoDNAB-4, FANA ASO, CLso DnaB-Helicase C]
- tuber disease symptoms (proportion of symptomatic tubers) compared to CLso infected Control tubers [1]: significantly reduced
- foliar disease symptoms (foliar symptom ranking) [1]: significantly reduced

Compound: GATTGAAGGGCAGGGGAATTC (chemistry not given here)
- foliar disease symptoms (foliar symptom ranking) [1]: significantly reduced

Compound: AATAAACGCAATGACCAATCC (FANA modification, further chemistry not given here) [CLso-1 GyrA-Ext-1, FANA ASO, CLso Gyrase-A]
- plant growth, average height [8]: 51 centimeters
- foliar disease symptoms (foliar symptom ranking) [1]: significantly reduced

Compound: AUAUCCTTGTCGTATCCCAGU (FANA modification, further chemistry not given here) [scramble control FANA, reference compound]
- expression of the wDi gyrA gene versus untreated cells [2]: No significant difference
- amount of CLas LygA mRNA versus untreated psyllids ([4]; in vivo): no significant difference
- CLas density (copy number) in psyllids ([5]; in vivo): No difference
- number of viable wDi cells (wDi copy number, PMA-qPCR) [3]: high wDi copy number
- toxicity of the FANA chemistry to the bacterial cells or the Drosophila S2 cells [3]: not toxic
